# PubChem BioAssay (NCI)
#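 At the GI50, growth is halved. TGI denotes the concentration required for complete inhibition of growth.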
# Assays:
# Test in all cases: growth of human tumour cells (NCI), 384-well format
# [1] = system: OVCAR-5 ovarian
# [2] = system: ACHN renal
# [3] = system: OVCAR-4 ovarian
# [4] = system: MALME-3M melanoma
# [5] = system: UO-31 renal
# [6] = system: HOP-62 NSCLC
# [7] = system: OVCAR-8 ovarian
# [8] = system: NCI-H522 lung
# [9] = system: A549 NSCLC
# [10] = system: CAKI-1 renal
# [11] = system: HS 578T breast
# [12] = system: OVCAR-3 ovarian
# [13] = system: SF-295 CNS
# [14] = system: MDA-MB-435 melanoma
# [15] = system: CCRF-CEM leukemia
# [16] = system: SN12C renal
# [17] = system: NCI-H23 lung
# [18] = system: HT29 colon
# [19] = system: TK-10 renal
# [20] = system: SK-MEL-5 melanoma
# [21] = system: IGROV1 ovarian
# [22] = system: HCT-15 colon
# [23] = system: LOX IMVI melanoma
# [24] = system: SW-620 colon
# [25] = system: NCI-H460 NSCLC
smiles,measurement,setting,value
COc1cc(C(=O)NC2CCN(C)CC2)c(F)cc1Nc1ncc2c(n1)N(C1CCCC1)CC(F)(F)C(=O)N2C,GI50,[1],14 nM
same,TGI,[1],1730 nM
same,GI50,[2],83.1 nM
same,TGI,[2],11300 nM
same,GI50,[3],1630 nM
same,TGI,[3],5880 nM
same,GI50,[4],26.5 nM
same,TGI,[4],1530 nM
same,GI50,[5],52.1 nM
same,TGI,[5],2030 nM
same,GI50,[6],< 10 nM
same,TGI,[6],2900 nM
same,GI50,[7],10.4 nM
same,TGI,[7],26.8 nM
same,GI50,[8],< 10 nM
same,TGI,[8],< 10 nM
same,GI50,[9],< 10 nM
same,TGI,[9],410 nM
same,GI50,[10],93.2 nM
same,TGI,[10],10500 nM
same,GI50,[11],13.5 nM
same,TGI,[11],42.1 nM
same,GI50,[12],< 10 nM
same,TGI,[12],14.1 nM
same,GI50,[13],30.8 nM
same,TGI,[13],272 nM
same,GI50,[14],< 10 nM
same,TGI,[14],10.8 nM
same,GI50,[15],< 10 nM
same,TGI,[15],< 10 nM
same,GI50,[16],246 nM
same,TGI,[16],3440 nM
same,GI50,[17],< 10 nM
same,TGI,[17],16.7 nM
same,GI50,[18],< 10 nM
same,TGI,[18],19.3 nM
same,GI50,[19],1380 nM
same,TGI,[19],5990 nM
same,GI50,[20],< 10 nM
same,TGI,[20],42.8 nM
same,GI50,[21],29.8 nM
same,TGI,[21],2820 nM
same,GI50,[22],21.4 nM
same,TGI,[22],160 nM
same,GI50,[23],16.7 nM
same,TGI,[23],1150 nM
same,GI50,[24],< 10 nM
same,TGI,[24],28.4 nM
same,GI50,[25],< 10 nM
